Article PMC8064475, “Synthesis of Biobased Phloretin Analogues: An Access to Antioxidant and Anti-Tyrosinase Compounds for Cosmetic Applications” (Antioxidants, 2021)
“Also recorded” adds a separate entry of the source.

Legend:
[1] = DPPH radical scavenging assay; type: biochemical; details: in ethanol; DPPH 200 µM; read at 520 nm over 7.5 h; read-out: EC50 for DPPH inhibition
Description: The radical scavenging activity of all compounds was tested through 2,2-diphenyl-1-picryhydrazyl (DPPH) assay which determines the EC50 values as previously described. The test consists of adding 190 µL of DPPH solution (200 µM) in ethanol to 10 µL of potential antiradical molecule solution at different concentrations (from 800 to 12.5 µM). The reaction was carried out in 96-well microplates and the disappearance of DPPH radicals was monitored at 520 nm every 5 min during 7.5 h in a multiplate Biotek (Winooski, VT, USA), Epoch 2 spectrophotometer. The EC50 values, corresponding to the concentration needed to reduce half of the initial population of DPPH radicals, were provided by the crossing point of the curves of %DPPH and %reduced DPPH. Curves dots were obtained using an average of the last six measurements for each concentration in Regressi® software version 3.99.

mushroom tyrosinase = experiment: Mushroom tyrosinase inhibition assay; type: biochemical; details: tyrosine substrate; ammonium formate buffer pH 6.4; 37 °C; dopachrome at 420 nm
Description: Tyrosinase inhibition activity was evaluated using the method used by Peyrot et al.. […] Then, 20 µL of tyrosine at 4.42 mM in ammonium formate buffer was added. […] IC50 values, corresponding to the concentration required to inhibit 50% of tyrosinase activity, were obtained using GraphPad Prism® software version 6.01.

[2] = UV-Vis spectra at 10 µM in ethanol; type: physicochemical; details: 1 cm quartz cuvette, band I
Description: (§1) UV-Vis spectra were recorded at 10 µM in ethanol on a Cary 60 UV-Vis spectrophotometer by Agilent (Wilmington, DE, USA) in a 1 cm quartz cuvette. The absorbance loss was evaluated by comparison of absorbances at the λmax before and after 1 h of irradiation into a Rayonet® RPR-200 (λ = 300 nm, P = 8.32 W.m^−2, stirring, T = 35 °C) (SNE Ultraviolet Co. Branford, CT, USA) using 14 RPR-3000A lamps.

[3] = Photostability: absorbance loss after UV irradiation; type: physicochemical; details: 10 µM in ethanol; 1 h irradiation at 300 nm; absorbance at λmax before vs after
Description: as §1

Molecule	EC50 [1] [µM]	IC50 (mushroom tyrosinase) [mM]	Maximal absorbance [2]	Loss of absorbance [3]	IC50 for mushroom tyrosinase inhibition (mushroom tyrosinase)
COc1cc(C(=O)CCc2ccc(O)cc2)ccc1O [b6, 4,4′-dihydroxy-3′-methoxy-dihydrochalcone]	> 80	> 10	–	–	–
COc1cc(CCC(=O)c2ccc(O)cc2)ccc1O [b5, 4,4′-dihydroxy-3-methoxy-dihydrochalcone]	28	0.5 ± 0.03	–	–	–
CCCCC(CC)COC(=O)C=Cc1ccc(OC)cc1 (stereo not drawn) [Octinoxate, octinoxate, reference compound]	–	–	0.24	26.0%	–
COc1ccc(O)c(C(C)(C)C)c1 [BHA, butylated hydroxyanisol, reference compound]	18.5	–	–	–	–
COc1cc(/C=C/C(=O)c2cc(OC)c(O)c(OC)c2)cc(OC)c1O [a12, 4,4′-dihydroxy-3,3′,5,5′-tetramethoxy-chalcone]	43	> 10	–	–	–
COc1cc(C(=O)CCc2cc(OC)c(O)c(OC)c2)ccc1O [b11, 4,4′-dihydroxy-3,3′,5-trimethoxy-dihydrochalcone]	33	> 10	–	Full loss of absorbance	–
COc1cc(C(=O)/C=C/c2ccc(O)cc2)cc(OC)c1O [a9, 4,4′-dihydroxy-3′,5′-dimethoxy-chalcone]	> 80	0.13 ± 0.01	–	–	–
COc1cc(C(=O)CCc2ccc(O)c(O)c2)ccc1O [b7, 3,4,4′-trihydroxy-3-methoxy-dihydrochalcone]	32	> 10	–	–	–
Cc1cc(C(C)(C)C)c(O)c(C(C)(C)C)c1 [BHT, butylated hydroxytoluene, reference compound]	28	–	–	–	–
COc1cc(/C=C/C(=O)c2ccc(O)cc2)ccc1O [a5, 4,4′-dihydroxy-3-methoxy-chalcone]	71	2.3 ± 0.1	–	–	–
COc1cc(C(=O)/C=C/c2ccc(O)cc2)ccc1O [a6, 4,4′-dihydroxy-3′-methoxy-chalcone]	> 80	0.14 ± 0.01	–	16.1%	–
COc1cc(C(=O)CCc2ccc(O)cc2)cc(OC)c1O [b9, 4,4′-dihydroxy-3′,5′-dimethoxy-dihydrochalcone]	> 80	> 10	0.19	67.7%	–
O=C(CCc1ccc(O)cc1)c1c(O)cc(O)cc1O [Phloretin, phloretin]	24.5	> 10	0.23	5.9%	did not exhibit tyrosinase inhibition activity
COc1cc(CCC(=O)c2ccc(O)c(OC)c2)ccc1O [b10, 4,4′-dihydroxy-3,3′-dimethoxydihydrochalcone]	29.5	0.27 ± 0.01	0.13	20%	–
O=C(/C=C/c1ccc(O)cc1)c1ccc(O)c(O)c1 [a3, 3′,4,4′-trihydroxy-chalcone]	15.5	> 10	–	–	did not show any activity
COc1cc(CCC(=O)c2ccc(O)c(O)c2)ccc1O [b8, 3′,4,4′-trihydroxy-3-methoxy-dihydrochalcone]	11	0.07 ± 0.01	–	0.1%	–
O=C(/C=C/c1ccc(O)c(O)c1)c1ccc(O)c(O)c1 [a4, 3,3′,4,4′-tetrahydroxy-chalcone]	8	–	0.47	75.7%	–
COc1cc(/C=C/C(=O)c2ccc(O)c(OC)c2)ccc1O [a10, 4,4′-dihydroxy-3,3′-dimethoxy-chalcone]	43.5	1.8 ± 0.09	–	–	–
COc1cc(/C=C/C(=O)c2ccc(O)c(O)c2)ccc1O [a8, 3′,4,4′-trihydroxy-3-methoxy-chalcone]	9.5	> 10	–	–	–
COc1ccc(C(=O)CC(=O)c2ccc(C(C)(C)C)cc2)cc1 [Avobenzone, avobenzone, reference compound]	–	–	0.37	0.6%	–
O=C(CCc1ccc(O)c(O)c1)c1ccc(O)cc1 [b2, 3,4,4′-trihydroxy-dihydrochalcone]	35	> 10	0.21	11.4%	–
3,4,4′-trihydroxy-3-methoxy-chalcone [a7]	31.5	2.3 ± 0.1	0.38	46.2%	–
COc1cc(CCC(=O)c2cc(OC)c(O)c(OC)c2)cc(OC)c1O [b12, 4,4′-dihydroxy-3,3′,5,5′-tetramethoxy-dihydrochalcone]	42.5	> 10	–	–	–
O=C(CCc1ccc(O)cc1)c1ccc(O)c(O)c1 [b3, 3′,4,4′-trihydroxy-dihydrochalcone]	16	> 10	–	Negative loss of absorbance; also recorded: higher absorbance higher after 1 h of irradiation	–
O=C(/C=C/c1ccc(O)cc1)c1ccc(O)cc1 [a1, 4,4′-dihydroxy-chalcone]	> 80	0.1 ± 0.01	0.65	77.6%	–
O=C(/C=C/c1ccc(O)c(O)c1)c1ccc(O)cc1 [a2, 3,4,4′-trihydroxy-chalcone]	31.5	–	–	–	–
COc1cc(C(=O)/C=C/c2cc(OC)c(O)c(OC)c2)ccc1O [a11, 4,4′-dihydroxy-3,3′,5-trimethoxy-chalcone]	45	7.9 ± 0.4	0.27	–	–
O=C(CCc1ccc(O)c(O)c1)c1ccc(O)c(O)c1 [b4, 3,3′,4,4′-tetrahydroxy-dihydrochalcone]	15	> 10	–	Negative loss of absorbance; also recorded: higher absorbance higher after 1 h of irradiation	–
O=C(CCc1ccc(O)cc1)c1ccc(O)cc1 [b1, 4,4′-dihydroxy-dihydrochalcone]	> 80	> 10	0.23	13.8%	–
